# Test results as given in patent publication US20120165306A1, “PYRAZINYLPYRIDINES USEFUL FOR THE TREATMENT OF PROLIFERATIVE DISEASES” (priority 2009, published 2012).
# Molecular target: Cdk9/cyclinT1 (Homo sapiens, UniProt P50750)
# Test: Cdk9/cyclinT1 kinase assay (IMAP or Alpha Screen protocol)
# From the text: Cdk9/cyclinT1 IMAP Protocol
# Fluorescence polarization (FP) is used for detection.
# Cdk9/cyclinT1 Alpha Screen Protocol
# Cdk9/cyclinT1, sequence (P50750 whole entry): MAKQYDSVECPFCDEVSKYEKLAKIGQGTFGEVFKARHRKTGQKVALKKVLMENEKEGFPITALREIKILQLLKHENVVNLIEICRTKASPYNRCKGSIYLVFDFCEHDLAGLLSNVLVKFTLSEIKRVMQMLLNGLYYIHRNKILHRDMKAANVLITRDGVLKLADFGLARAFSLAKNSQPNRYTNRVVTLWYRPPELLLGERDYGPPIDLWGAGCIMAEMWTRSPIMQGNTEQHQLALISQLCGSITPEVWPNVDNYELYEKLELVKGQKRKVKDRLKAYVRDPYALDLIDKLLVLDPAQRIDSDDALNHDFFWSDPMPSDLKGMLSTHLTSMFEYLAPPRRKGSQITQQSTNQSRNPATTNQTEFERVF
# Cdk9/cyclinT1, sequence (O60563 whole entry partner): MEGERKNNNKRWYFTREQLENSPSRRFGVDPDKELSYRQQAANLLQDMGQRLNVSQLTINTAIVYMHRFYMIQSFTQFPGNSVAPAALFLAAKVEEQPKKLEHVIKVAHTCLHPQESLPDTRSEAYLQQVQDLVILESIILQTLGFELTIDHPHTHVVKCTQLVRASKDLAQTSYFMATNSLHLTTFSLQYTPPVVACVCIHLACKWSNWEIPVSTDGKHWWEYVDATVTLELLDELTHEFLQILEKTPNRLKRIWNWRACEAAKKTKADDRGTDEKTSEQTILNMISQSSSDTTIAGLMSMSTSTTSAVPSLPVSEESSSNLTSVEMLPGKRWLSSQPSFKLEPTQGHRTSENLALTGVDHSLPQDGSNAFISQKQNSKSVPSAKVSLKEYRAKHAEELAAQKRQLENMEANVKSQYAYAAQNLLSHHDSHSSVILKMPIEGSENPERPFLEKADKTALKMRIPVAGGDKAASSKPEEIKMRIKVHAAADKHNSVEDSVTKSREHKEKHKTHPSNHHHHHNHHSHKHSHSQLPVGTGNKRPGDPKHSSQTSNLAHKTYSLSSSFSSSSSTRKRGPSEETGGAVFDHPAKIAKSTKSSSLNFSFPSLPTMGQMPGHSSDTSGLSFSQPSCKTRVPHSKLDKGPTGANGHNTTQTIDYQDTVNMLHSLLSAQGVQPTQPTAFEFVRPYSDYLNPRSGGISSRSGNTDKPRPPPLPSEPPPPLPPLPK
row,Structure (SMILES),IC50
1,"O=C(Nc1cc(-c2cncc(N[C@@H]3CC34CCOCC4)n2)c(Cl)cn1)[C@@H]1CCCNC1 [Example 63, (R)-Piperidine-3-carboxylic acid (5-chloro-4-{6-[(R)-(6-oxa-spiro[2.5]oct-1-yl)amino]-pyrazin-2-yl}-pyridin-2-yl)-amide]",47 nM
2,"CC(C)S(=O)(=O)N1CCC[C@H](C(=O)Nc2cc(-c3cncc(NCC4CCOCC4)n3)c(C(F)(F)F)cn2)C1 [Example 67, (S)-1-(Propane-2-sulfonyl)-piperidine-3-carboxylic acid (4-{6-[(tetrahydro-pyran-4-ylmethyl)-amino]-pyrazin-2-yl}-5-trifluoromethyl-pyridin-2-yl)-amide]",133 nM
3,"O=C(Nc1cc(-c2cncc(NCc3ccccc3F)n2)c(Cl)cn1)[C@@H]1CCCNC1 [Example 14, (R)-Piperidine-3-carboxylic acid {5-chloro-4-[6-(2-fluoro-benzylamino)-pyrazin-2-yl]-pyridin-2-yl}-amide]",< 8 nM
4,COCCN1CCC[C@@H](C(=O)Nc2cc(-c3cncc(NCC4CCOCC4)n3)c(Cl)cn2)C1 [Example 3],316 nM
5,"CC(C)OC(=O)N1CCC[C@H](C(=O)Nc2cc(-c3cncc(NCC4CCOCC4)n3)c(Cl)cn2)C1 [Example 46, (S)-3-(5-Chloro-4-{6-[(tetrahydro-pyran-4-ylmethyl)-amino]-pyrazin-2-yl}-pyridin-2-ylcarbamoyl)-piperidine-1-carboxylic acid isopropyl ester]",< 8 nM
6,"CC(=O)Nc1cc(-c2cncc(NCC3CCOCC3)n2)c(Cl)cn1 [Example 11, N-(5-Chloro-4-{6-[(tetrahydro-pyran-4-ylmethyl)-amino]-pyrazin-2-yl}-pyridin-2-yl)-acetamide]",29 nM
7,"CC(=O)N1CCC[C@@H](C(=O)Nc2cc(-c3cncc(NCC4CCOCC4)n3)c(Cl)cn2)C1 [Example 5, (R)-1-Acetyl-piperidine-3-carboxylic acid (5-chloro-4-{6-[(tetrahydro-pyran-4-ylmethyl)-amino]-pyrazin-2-yl}-pyridin-2-yl)-amide]",268 nM
8,"O=C(Nc1cc(-c2cnccn2)c(Cl)cn1)[C@@H]1CCCNC1 [Example 1, (R)-Piperidine-3-carboxylic acid (5-chloro-4-pyrazin-2-yl-pyridin-2-yl)-amide]",2100 nM
9,"O=C(Nc1cc(-c2cncc(NCc3ccc(F)cc3)n2)c(Cl)cn1)[C@@H]1CCCNC1 [Example 20, (R)-Piperidine-3-carboxylic acid {5-chloro-4-[6-(4-fluoro-benzylamino)-pyrazin-2-yl]-pyridin-2-yl}-amide]",< 8 nM
10,"O=C(Nc1cc(-c2cncc(NCC3CC3)n2)c(Cl)cn1)[C@@H]1CCCNC1 [Example 39, (R)-Piperidine-3-carboxylic acid {5-chloro-4-[6-(cyclopropylmethyl-amino)-pyrazin-2-yl]-pyridin-2-yl}-amide]",17 nM
11,"COC(=O)N[C@@H]1CC[C@@H](C(=O)Nc2cc(-c3cncc(NCC4CCOCC4)n3)c(Cl)cn2)C1 [Example 55, [(1R,3R)-3-(5-Chloro-4-{6-[(tetrahydro-pyran-4-ylmethyl)-amino]-pyrazin-2-yl}-pyridin-2-ylcarbamoyl)-cyclopentyl]-carbamic acid methyl ester]",< 8 nM
12,"O=C(Nc1cc(-c2cncc(NCCN3CCCC3=O)n2)c(Cl)cn1)[C@@H]1CCCNC1 [Example 32, (R)-Piperidine-3-carboxylic acid (5-chloro-4-{6-[2-(2-oxo-pyrrolidin-1-yl)-ethylamino]-pyrazin-2-yl}-pyridin-2-yl)-amide]",20 nM
13,"N[C@H]1CC[C@@H](C(=O)Nc2cc(-c3cncc(NCC4CCOCC4)n3)c(C(F)(F)F)cn2)C1 [Example 62, (1R,3S)-3-Amino-cyclopentanecarboxylic acid (4-{6-[(tetrahydro-pyran-4-ylmethyl)-amino]-pyrazin-2-yl}-5-trifluoromethyl-pyridin-2-yl)-amide]",40 nM
14,"COC(=O)N1CCC[C@H](C(=O)Nc2cc(-c3cncc(NCC4CCOCC4)n3)c(Cl)cn2)C1 [Example 49, (S)-3-(5-Chloro-4-{6-[(tetrahydro-pyran-4-ylmethyl)-amino]-pyrazin-2-yl}-pyridin-2-ylcarbamoyl)-piperidine-1-carboxylic acid methyl ester]",< 8 nM
15,"CS(=O)(=O)N[C@@H]1CC[C@H](C(=O)Nc2cc(-c3cncc(NCC4CCOCC4)n3)c(Cl)cn2)C1 [Example 50, (1S,3R)-3-Methanesulfonylamino-cyclopentanecarboxylic acid (5-chloro-4-{6-[(tetrahydro-pyran-4-ylmethyl)-amino]-pyrazin-2-yl}-pyridin-2-yl)-amide]",< 8 nM
16,"CC(C)S(=O)(=O)N1CCC[C@H](C(=O)Nc2cc(-c3cncc(NCC4CCOCC4)n3)c(Cl)cn2)C1 [Example 56, (S)-1-(Propane-2-sulfonyl)-piperidine-3-carboxylic acid (5-chloro-4-{6-[(tetrahydro-pyran-4-ylmethyl)-amino]-pyrazin-2-yl}-pyridin-2-yl)-amide]",< 8 nM
17,"COCC(=O)N1CCC[C@H](C(=O)Nc2cc(-c3cncc(NCC4CCOCC4)n3)c(Cl)cn2)C1 [Example 47, (S)-1-(2-Methoxy-acetyl)-piperidine-3-carboxylic acid (5-chloro-4-{6-[(tetrahydro-pyran-4-ylmethyl)-amino]-pyrazin-2-yl}-pyridin-2-yl)-amide]",< 8 nM

row,Structure (SMILES),IC50
1,"O=C(Nc1cc(-c2cncc(NC[C@@H]3CCCO3)n2)c(Cl)cn1)[C@@H]1CCCNC1 [Example 33, (R)-Piperidine-3-carboxylic acid [5-chloro-4-(6-{[(S)-1-(tetrahydro-furan-2-yl)methyl]-amino}-pyrazin-2-yl)-pyridin-2-yl]-amide]",15 nM
2,"N[C@@H]1CC[C@@H](C(=O)Nc2cc(-c3cncc(NCC4CCOCC4)n3)c(Cl)cn2)C1 [Example 44, (1R,3R)-3-Amino-cyclopentanecarboxylic acid (5-chloro-4-{6-[(tetrahydro-pyran-4-ylmethyl)-amino]-pyrazin-2-yl}-pyridin-2-yl)-amide]",< 8 nM
3,"O=C(Nc1cc(-c2cncc(NCC3CCOCC3)n2)c(Cl)cn1)[C@@H]1CCCN1 [Example 40, (S)-Pyrrolidine-2-carboxylic acid (5-chloro-4-{6-[(tetrahydro-pyran-4-ylmethyl)-amino]-pyrazin-2-yl}-pyridin-2-yl)-amide]",37 nM
4,"O=C(Nc1cc(-c2cncc(NCC3CCOCC3)n2)c(Cl)cn1)C1CCNCC1 [Example 22, Piperidine-4-carboxylic acid (5-chloro-4-{6-[(tetrahydro-pyran-4-ylmethyl)-amino]-pyrazin-2-yl}-pyridin-2-yl)-amide]",8 nM
5,"O=C(Nc1cc(-c2cncc(NCC3CCOCC3)n2)c(Cl)cn1)[C@@H]1CCNC1 [Example 41, (R)-Pyrrolidine-3-carboxylic acid (5-chloro-4-{6-[(tetrahydro-pyran-4-ylmethyl)-amino]-pyrazin-2-yl}-pyridin-2-yl)-amide]",< 8 nM
6,"O=C(Nc1cc(-c2cncc(NCC3CCOCC3)n2)c(Cl)cn1)[C@H]1CNC[C@H]1F [Example 64, (3R,4S)-4-Fluoro-pyrrolidine-3-carboxylic acid (5-chloro-4-{6-[(tetrahydro-pyran-4-ylmethyl)-amino]-pyrazin-2-yl}-pyridin-2-yl)-amide]",< 8 nM
7,"O=C(Nc1cc(-c2cncc(NCC3CCOCC3)n2)c(Cl)cn1)[C@H]1CCCNC1 [Example 8, (S)-Piperidine-3-carboxylic acid (5-chloro-4-{6-[(tetrahydro-pyran-4-ylmethyl)-amino]-pyrazin-2-yl}-pyridin-2-yl)-amide]",28 nM
8,"O=C(Nc1cc(-c2cncc(NCc3cccc(OC(F)F)c3)n2)c(Cl)cn1)[C@@H]1CCCNC1 [Example 18, (R)-Piperidine-3-carboxylic acid {5-chloro-4-[6-(3-difluoromethoxy-benzylamino)-pyrazin-2-yl]-pyridin-2-yl}-amide]",< 8 nM
9,"CC(=O)NCCNc1cncc(-c2cc(NC(=O)[C@@H]3CCCNC3)ncc2Cl)n1 [Example 19, (R)-Piperidine-3-carboxylic acid {4-[6-(2-acetylamino-ethylamino)-pyrazin-2-yl]-5-chloro-pyridin-2-yl}-amide]",153 nM
10,"O=C(Nc1cc(-c2cncc(NCC3CCOCC3)n2)c(Cl)cn1)C1CCOCC1 [Example 15, Tetrahydro-pyran-4-carboxylic acid (5-chloro-4-{6-[(tetrahydro-pyran-4-ylmethyl)-amino]-pyrazin-2-yl}-pyridin-2-yl)-amide]",< 8 nM
11,CS(=O)(=O)N1CCC[C@H](C(=O)Nc2cc(-c3cncc(NCC4CCOCC4)n3)c(Cl)cn2)C1 [Example 6],< 8 nM
12,"COC(=O)N[C@@H]1CC[C@H](C(=O)Nc2cc(-c3cncc(NCC4CCOCC4)n3)c(Cl)cn2)C1 [Example 53, [(1R,3S)-3-(5-Chloro-4-{6-[(tetrahydro-pyran-4-ylmethyl)-amino]-pyrazin-2-yl}-pyridin-2-ylcarbamoyl)-cyclopentyl]-carbamic acid methyl ester]",< 8 nM
13,"O=C(Nc1cc(-c2cncc(NCC3CCOCC3)n2)c(Cl)cn1)C1CNCCO1 (stereo not drawn) [Example 21, Morpholine-2-carboxylic acid (5-chloro-4-{6-[(tetrahydro-pyran-4-ylmethyl)-amino]-pyrazin-2-yl}-pyridin-2-yl)-amide]",12.8 nM
14,"O=C(Nc1cc(-c2cncc(NCC3CCOCC3)n2)c(C(F)(F)F)cn1)C1CCOCC1 [Example 59, Tetrahydro-pyran-4-carboxylic acid (4-{6-[(tetrahydro-pyran-4-ylmethyl)-amino]-pyrazin-2-yl}-5-trifluoromethyl-pyridin-2-yl)-amide]",1010 nM
15,"CC(C)(C)OC(=O)N1CCC[C@@H](C(=O)Nc2cc(-c3cncc(NCC4CCOCC4)n3)c(Cl)cn2)C1 [Example 2, (R)-3-(5-Chloro-4-{6-[(tetrahydro-pyran-4-ylmethyl)-amino]-pyrazin-2-yl}-pyridin-2-ylcarbamoyl)-piperidine-1-carboxylic acid tert-butyl ester]",16 nM
16,"O=C(Cc1cccnc1)Nc1cc(-c2cncc(NCC3CCOCC3)n2)c(Cl)cn1 [Example 57, N-(5-Chloro-4-{6-[(tetrahydro-pyran-4-ylmethyl)-amino]-pyrazin-2-yl}-pyridin-2-yl)-2-pyridin-3-yl-acetamide]",< 8 nM
